{"source": "patent US20030148954A1", "about": "“Agents and methods for modulating activator protein-1-mediated cellular processes” (Wisconsin Alumni Research Foundation, priority 2001, published 2003)", "key": {"human Aγ globin promoter": {"test_system": "human Aγ globin promoter", "assay": "pGL3γLuc reporter, transient transfection of K562 cells", "format": "cell-based", "description": "Transient Transfections—K562 cells (5×10^5) were collected by centrifugation at 240×g for 8 min at 4° C. and resuspended in 4 ml of complete IMEM. Plasmid DNAs (1 μg of reporter and 2 μg of effector) were added to 150 μl of IMEM, incubated with Superfect (4 μl/1 μg DNA; Qiagen) for 10 min at room temperature and then added to cells.\nFor each transfection, cells were incubated for 26 h after transfection and then treated with TPA (final concentration: 5 nM) or the vehicle (DMSO). After incubating for another 12 or 16 h, cells were harvested and assayed for luciferase activity. Luciferase activity was normalized by the protein content of the lysates, determined by Bradford assay using γ-globulin as a standard."}, "MMP1": {"test_system": "MMP1", "assay": "Northern blotting of MMP1 transcripts in K562-Babe and K562-NIC-1 cells", "format": "cell-based, human", "settings": "5 nM TPA 12 h, stably transfected NIC-1", "description": "(§1) Stable Transfection—K562 cells were stably transfected by electroporation with a Bio-Rad Gene pulser electroporator. Cells (5×10^6) were washed with ice-cold PBS, resuspended in 0.5 ml of ice-cold PBS, mixed with 5 μg linearized plasmid DNA, and subjected to electroporation (960 microfarad; 220 V) in a 0.4 cm-wide electroporation cuvette (BTX). pBabe and pNIC-1 were linearized with NotI. Cells were then added to 20 ml of complete IMEM, grown for 48 h, and diluted in complete IMEM containing 1.5 μg/ml puromycin (pools of K562-Babe and K562-NIC-1 cells). Stably transfected cells were analyzed for erythroid differentiation as soon as the pools were generated by benzidine staining to reduce the probability of phenotypic changes that may result from prolonged growth.\nNorthern Blotting—Total RNA from K562-Babe and K562-NIC-1 cells was extracted with Triazol (Life Technologies, Inc.). Ten μg of RNA per sample was electrophoresed on a 1% agarose, 6.6% formaldehyde gel and then transferred overnight to a Magnacharge nylon membrane (Osmonics). RNA was cross-linked to the membrane by UV irradiation. Membranes were prehybridized for 30 min at 60° C. in ExpressHyb hybridization solution (Clontech). […] Radioactivity was quantitated by PhosphorImager analysis with ImageQuant software (Molecular Dynamics)."}, "ERK1/2": {"test_system": "ERK1/2", "assay": "Western blot with phospho-specific antibodies, ERK1/2", "format": "cell-based, human", "settings": "K562-NIC-1 versus K562-Babe, 5 nM TPA 30 min", "description": "as §1\nTo measure the phosphorylation state of components of the MAPK pathway, K562-Babe and K562-NIC-1 cells (1×10^6) were collected after treatment with 5 nM TPA or DMSO for 30 min. Cells were washed once with ice-cold PBS, cell pellets were resuspended in 30 μl ice-cold PBS and were immediately boiled in 70 μl SDS sample buffer for 10 min. Proteins (10 μl) were resolved by SDS-PAGE on a 10% acrylamide gel and transferred to Immobilon P membrane (Millipore). […] Antigen-antibody complexes were detected with ECL Plus™ (Amersham Life Science) according to manufacturer's instructions."}, "AP-1": {"test_system": "AP-1", "assay": "EMSA of AP-1 DNA binding activity in nuclear extracts", "set-up": "species or system human", "settings": "5 nM TPA 2 hours, nuclear extracts", "description": "K562-Babe and K562-NIC-1 cells were harvested by centrifugation for 10 min at 150×g. Cells were washed once with ice-cold PBS and resuspended in 1.5 volumes of nuclei lysis buffer (10 mM Tris-HCl, pH 7.5, 10 mM NaCl, 3 mM MgCl2, and 0.2% Nonidet P-40) on ice for 3 min. Nuclei were collected by centrifugation for 5 min at 600×g. Nuclei were washed by gentle resuspension in 1.5 volumes of nuclei wash buffer (10 mM Tris-HCl, pH 7.5, 10 mM NaCl, and 3 mM MgCl2) and then collected by centrifugation for 4 min at 600×g. […] Nuclei were extracted for 45 min at 4° C. with constant mixing. The suspension was then centrifuged for 30 min at 150,000×g. Aliquots of the supernatant were frozen on dry ice and stored at -80° C. The protein concentration as measured by the Bradford assay, with y-globulin as a standard ranged from 4 to 10 mg/ml. DTT (5 mM), phenylmethanesulfonyl fluoride (0.5 mM), leupeptin (20 μg/ml), β-glycerophosphate (800 μM), sodium vanadate (1 mM), and sodium molybdate (50 μM) were included in all buffers. Electrophoretic Mobility Shift Assay-EMSA assays were done as described previously (54). AP-1 DNA binding activity was measured by EMSA with a double-stranded end-labeled oligonucleotide [NT] containing a high affinity AP-1 binding site. […] DNA binding activity was quantitated by PhosphorImager analysis with ImageQuant software (Molecular Dynamics)."}}, "data": [{"substance": "NIC-1: constitutively active Notch-1 intracellular domain, amino acids 1759-2556 of human Notch-1 with carboxyl-terminal Myc tag, expressed from pBabe-NIC-1", "values": [{"measurement": "effect on TPA-induced activity of pGL3γLuc", "setting": "human Aγ globin promoter; K562, TPA-induced", "result": "without affecting"}, {"measurement": "increase of basal activity of pGL3γLuc", "setting": "human Aγ globin promoter; K562, basal", "result": "~80", "unit": "%"}, {"measurement": "TPA induction of MMP1 transcript levels in K562-NIC-1 versus K562-Babe cells", "setting": "MMP1", "result": "considerably lower"}, {"measurement": "basal and TPA-induced ERK1/2 phosphorylation", "setting": "ERK1/2", "result": "slightly higher"}, {"measurement": "AP-1 complexes formed with extracts from K562-NIC-1 versus K562-Babe cells", "setting": "AP-1", "result": "no apparent qualitative or quantitative differences"}]}]}
